In patent US20260070903A1, “NOVEL PYRIDO[3,4-D]PYRIMIDIN-8-ONE DERIVATIVE HAVING PROTEIN KINASE INHIBITORY ACTIVITY, AND PHARMACEUTICAL COMPOSITION FOR PREVENTING, ALLEVIATING, OR TREATING CANCER, COMPRISING SAME” (KOREA INSTITUTE OF SCIENCE AND TECHNOLOGY, priority 2019, published 2026) one finds inhibition data, which are given here for 1 compound.

One test addresses KHS (Homo sapiens, UniProt Q9Y4K4). The experiment in a line: Kinase panel biochemical assay, KHS. The conditions noted are these: single concentration of 1 μM, read-out: percent inhibition of kinase. As to the method:
(§1) As a test compound, Compound No. 55 was used. The percent inhibition of each kinase when treated with the test compound at a single concentration of 1 μM was measured, and the residual enzyme activity values (%) of the kinases were calculated. Kinases whose calculated residual enzyme activity values (%) was 30% or less (i.e., kinases inhibited by 70% or more) are as follows: […]

For a further test, the target named is SRMS (Homo sapiens, UniProt Q9H3Y6). As to the kind of experiment: Kinase panel biochemical assay, SRMS. The conditions noted are these: single concentration of 1 μM, read-out: percent inhibition of kinase. How it is done:
as §1

By inhibition is commonly meant the relative decrease from the control value, in per cent.

Sequence of SRMS (Q9H3Y6 whole entry): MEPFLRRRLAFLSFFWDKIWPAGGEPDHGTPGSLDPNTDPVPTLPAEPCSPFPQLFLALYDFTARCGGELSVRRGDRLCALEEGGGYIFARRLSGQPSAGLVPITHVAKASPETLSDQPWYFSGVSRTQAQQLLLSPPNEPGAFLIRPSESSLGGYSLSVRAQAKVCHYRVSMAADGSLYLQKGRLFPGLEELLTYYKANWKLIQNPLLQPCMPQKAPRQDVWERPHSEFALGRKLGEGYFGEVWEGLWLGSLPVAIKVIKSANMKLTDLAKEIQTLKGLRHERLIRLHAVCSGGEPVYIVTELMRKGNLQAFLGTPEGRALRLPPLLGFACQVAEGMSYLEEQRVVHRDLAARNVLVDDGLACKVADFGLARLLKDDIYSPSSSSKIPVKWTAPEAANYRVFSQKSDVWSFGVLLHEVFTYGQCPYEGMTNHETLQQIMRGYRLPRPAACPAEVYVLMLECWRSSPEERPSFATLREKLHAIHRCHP
Sequence of KHS (Q9Y4K4 whole entry): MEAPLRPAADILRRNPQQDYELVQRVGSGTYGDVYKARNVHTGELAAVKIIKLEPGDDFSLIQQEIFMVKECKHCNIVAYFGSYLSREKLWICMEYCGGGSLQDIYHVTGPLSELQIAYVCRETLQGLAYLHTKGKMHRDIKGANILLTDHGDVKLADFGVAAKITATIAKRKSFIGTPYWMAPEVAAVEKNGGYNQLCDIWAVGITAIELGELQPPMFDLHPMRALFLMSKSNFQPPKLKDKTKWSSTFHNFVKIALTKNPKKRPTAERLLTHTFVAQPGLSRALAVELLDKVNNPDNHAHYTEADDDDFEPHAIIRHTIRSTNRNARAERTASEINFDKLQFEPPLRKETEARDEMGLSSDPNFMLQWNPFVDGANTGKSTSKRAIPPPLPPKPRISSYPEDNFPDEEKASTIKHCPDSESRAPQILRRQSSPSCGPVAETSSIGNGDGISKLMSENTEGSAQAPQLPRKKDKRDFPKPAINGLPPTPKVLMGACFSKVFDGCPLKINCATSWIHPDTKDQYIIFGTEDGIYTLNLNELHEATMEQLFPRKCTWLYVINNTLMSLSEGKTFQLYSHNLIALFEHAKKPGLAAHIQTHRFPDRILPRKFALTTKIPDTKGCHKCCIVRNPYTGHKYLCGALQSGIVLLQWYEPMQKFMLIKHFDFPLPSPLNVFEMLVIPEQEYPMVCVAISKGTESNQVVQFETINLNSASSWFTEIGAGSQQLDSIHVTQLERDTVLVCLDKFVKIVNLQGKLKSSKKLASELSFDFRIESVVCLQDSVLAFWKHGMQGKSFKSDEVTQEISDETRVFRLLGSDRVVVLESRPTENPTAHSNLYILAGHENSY

Consider `Cc1ccc(NC(=O)c2cccc(C(F)(F)F)c2)cc1-c1cc2cnc(N)nc2c(=O)[nH]1` [Compound No. 55, N-(3-(2-amino-8-oxo-7,8-dihydropyrido[3,4-d]pyrimidin-6-yl)-4-methylphenyl)-3-(trifluoromethyl)benzamide], for which the inhibition at 1 µM at KHS and on SRMS was not below 70% in each case.
